Here are results for 19 compounds from patent US20240254140A1, “COMPOUNDS AND THEIR USE IN THE TREATMENT OF BACTERIAL INFECTION” (Hoffmann-La Roche Inc., priority 2021, published 2024).

The experiment relates to Escherichia coli ATCC 25922. As to the kind of experiment: Minimal Inhibitory Concentration (MIC) determination, broth microdilution. Conditions: ATCC25922; strain Escherichia coli ATCC 25922; broth microdilution per CLSI M07-A10; 18-24 hours at 35±2° C.; lowest concentration for complete growth inhibition. The class given is cell-based. The procedure: Minimal Inhibitory Concentration (MIC) Determination:
The MIC of antibacterial compounds against multiple species and strains was determined using the broth microdilution method according to M07-A10 Clinical and Laboratory Standards Institute (CLSI) guidelines, using the appropriate broth medium. In short, the compound plates were prepared by dispensing 100 μL of each stock solution in the first well of a 96 well microtiter plate (MTP) at a concentration 100-fold higher than the final concentration desired in broth. Eleven serial 2-fold dilutions of the highest concentration were made in DMSO for new compounds and in water (or appropriate solution) for reference compounds [2]. 1 μL of each well was transferred in a new MTP, which served as the test plate by subsequent inoculation. This bacterial suspension was prepared from strains that were first sub-cultured on agar plates and incubated for 18-24 hours as appropriate. Following incubation, the inoculum was prepared from isolated colonies and adjusted to 0.5 McFarland turbidity standard (1 to 2×10^8 Colony Forming Units (CFU)/mL) in 0.9% saline. The bacterial suspension was then diluted 1:200 in appropriate sterile medium and within 15 minutes 100 μL/well were dispensed. Negative controls (lack of bacterial cells) and growth control wells (lack of compound) were included in all plates. MTPs were incubated for 18-24 hours at 35±2° C. in ambient air. The MIC value of each compound, expressed as μg/mL, was determined as the lowest concentration required for complete growth inhibition (no visible growth). • [1] CLSI (2015) Methods for dilution antimicrobial susceptibility tests for bacteria that grow aerobically; Approved Standard, Tenth Edition. CLSI Document M7-A10 (ISBN 1-56238-987-4). Wayne, PA: Clinical and Laboratory Standards Institute, 19087, USA. • [2] CLSI (2017) Performance Standards for Antimicrobial Susceptibility Testing; Twenty-Fifth Informational Supplement. CLSI Document M100-S27, CLSI, Wayne, Pennsylvania 19087, USA.
Table 1 provides the Minimal Inhibitory Concentrations (MIC) in micrograms per millilitre of the compounds of present invention obtained against the strain Escherichia coli ATCC 25922.
(Broth dilution looks for growth in wells or tubes with falling amounts of substance.)

Converted amounts (≈) assume the structure as drawn.

One may read the MIC as the least concentration at which growth counts as inhibited. High values mean a less susceptible organism, low ones a more susceptible organism. Consider `CN1C[C@H](O)C[C@H]1C(=O)Nc1cc(F)c2c(c1)CC(CNCCC1CN(c3cnc4c(n3)NC(=O)CO4)C(=O)O1)C2` (stereo partly drawn) [Example 49, (2S,4R)—N-[7-Fluoro-2-[[2-[2-oxo-3-(3-oxo-4H-pyrazino[2,3-b][1,4]oxazin-6-yl)oxazolidin-5-yl]ethylamino]methyl]indan-5-yl]-4-hydroxy-1-methyl-pyrrolidine-2-carboxamide], for which the MIC stood at 0.25 µg/mL (≈ 0.439 µM).

Turning to `C[C@@H](C(=O)Nc1cc(F)c2c(c1)CC(CN1CCC3(CC1)CN(c1cnc4c(n1)NC(=O)CO4)C(=O)O3)C2)N(C)C` (stereo partly drawn) [Example 51, (2S)-2-(Dimethylamino)-N-[7-fluoro-2-[[2-oxo-3-(3-oxo-4H-pyrazino[2,3-b][1,4]oxazin-6-yl)-1-oxa-3,8-diazaspiro[4.5]decan-8-yl]methyl]indan-5-yl]propanamide], the MIC came to 0.125 µg/mL (≈ 0.22 µM).

Regarding `O=C1COc2ncc(N3CC4(CCN(CC5Cc6c(F)cc(NC(=O)[C@@H]7C[C@@H](O)CN7)c(F)c6C5)CC4)OC3=O)nc2N1` (stereo partly drawn) [Example 52, (2S,4R)—N-[4,7-Difluoro-2-[[2-oxo-3-(3-oxo-4H-pyrazino[2,3-b][1,4]oxazin-6-yl)-1-oxa-3,8-diazaspiro[4.5]decan-8-yl]methyl]indan-5-yl]-4-hydroxy-pyrrolidine-2-carboxamide], the MIC was 0.25 µg/mL (≈ 0.417 µM).

With `O=C(O)C(F)(F)F.O=C1COc2ncc(N3CC4(CCN(CC5Cc6cc(NC(=O)[C@]7(CO)CCCN7)cc(F)c6C5)CC4)OC3=O)nc2N1` (stereo partly drawn) [Example 53, (2R)—N-[7-Fluoro-2-[[2-oxo-3-(3-oxo-4H-pyrazino[2,3-b][1,4]oxazin-6-yl)-1-oxa-3,8-diazaspiro[4.5]decan-8-yl]methyl]indan-5-yl]-2-(hydroxymethyl)pyrrolidine-2-carboxamide; 2,2,2-trifluoroacetic Acid], the minimum inhibitory concentration (MIC) was 0.25 µg/mL.

`O=C(O)C(F)(F)F.O=C1COc2ncc(N3CC4(CCN(CC5Cc6cc(NC(=O)[C@H]7NCC[C@@H]7O)cc(F)c6C5)CC4)OC3=O)nc2N1` (stereo partly drawn) [Example 54, (2S,3S)—N-[7-Fluoro-2-[[2-oxo-3-(3-oxo-4H-pyrazino[2,3-b][1,4]oxazin-6-yl)-1-oxa-3,8-diazaspiro[4.5]decan-8-yl]methyl]indan-5-yl]-3-hydroxy-pyrrolidine-2-carboxamide; 2,2,2-trifluoroacetic Acid] returned an MIC of 0.25 µg/mL.

The compound `O=C1COc2ncc(N3CC4(CCN(CC5Cc6cc(NC(=O)[C@H]7C[C@@H](O)CN7)cc(F)c6C5)CC4)OC3=O)nc2N1` (stereo partly drawn) [Example 55, (2R,4R)—N-[7-Fluoro-2-[[2-oxo-3-(3-oxo-4H-pyrazino[2,3-b][1,4]oxazin-6-yl)-1-oxa-3,8-diazaspiro[4.5]decan-8-yl]methyl]indan-5-yl]-4-hydroxy-pyrrolidine-2-carboxamide] showed a minimal inhibitory concentration (MIC) of 0.125 µg/mL (≈ 0.215 µM).

`O=C1COc2ncc(N3CC4(CCN(CC5Cc6cc(NC(=O)[C@H]7C[C@H](O)CN7)cc(F)c6C5)CC4)OC3=O)nc2N1` (stereo partly drawn) [Example 56, (2R,4S)—N-[7-Fluoro-2-[[2-oxo-3-(3-oxo-4H-pyrazino[2,3-b][1,4]oxazin-6-yl)-1-oxa-3,8-diazaspiro[4.5]decan-8-yl]methyl]indan-5-yl]-4-hydroxy-pyrrolidine-2-carboxamide] had a minimal inhibitory concentration (MIC) of at most 0.06 µg/mL.

`O=C1COc2ncc(N3CC4(CCN(CC5Cc6cc(NC(=O)[C@@H]7C[C@H](O)CN7)cc(F)c6C5)CC4)OC3=O)nc2N1` (stereo partly drawn) [Example 57, (2S,4S)—N-[7-Fluoro-2-[[2-oxo-3-(3-oxo-4H-pyrazino[2,3-b][1,4]oxazin-6-yl)-1-oxa-3,8-diazaspiro[4.5]decan-8-yl]methyl]indan-5-yl]-4-hydroxy-pyrrolidine-2-carboxamide] yielded an MIC of at most 0.06 µg/mL.

For the compound `C[C@H](C(=O)Nc1cc(F)c2c(c1)CC(CN(C)CCC1CN(c3cnc4c(n3)NC(=O)CO4)C(=O)O1)C2)N(C)C` (stereo partly drawn) [Example 58, (2R)-2-(Dimethylamino)-N-[7-fluoro-2-[[methyl-[2-[2-oxo-3-(3-oxo-4H-pyrazino[2,3-b][1,4]oxazin-6-yl)oxazolidin-5-yl]ethyl]amino]methyl]indan-5-yl]propanamide], the minimum inhibitory concentration (MIC) worked out at 0.25 µg/mL (≈ 0.45 µM).

Compound `N#Cc1cc(NC(=O)[C@@H]2C[C@@H](O)CN2)cc2c1CC(CN1CCC3(CC1)CN(c1cnc4c(n1)NC(=O)CO4)C(=O)O3)C2` (stereo partly drawn) [Example 59, (2S,4R)—N-[7-cyano-2-[[2-oxo-3-(3-oxo-4H-pyrazino[2,3-b][1,4]oxazin-6-yl)-1-oxa-3,8-diazaspiro[4.5]decan-8-yl]methyl]indan-5-yl]-4-hydroxy-pyrrolidine-2-carboxamide] registered a minimal inhibitory concentration (MIC) of at most 0.06 µg/mL.

In turn, `O=C1COc2ncc(N3CC4(CCN(CC5Cc6cc(NC(=O)[C@@H]7C[C@@H](O)CN7)cnc6C5)CC4)OC3=O)nc2N1` (stereo partly drawn) [Example 60, (2S,4R)-4-Hydroxy-N-[6-[[2-oxo-3-(3-oxo-4H-pyrazino[2,3-b][1,4]oxazin-6-yl)-1-oxa-3,8-diazaspiro[4.5]decan-8-yl]methyl]-6,7-dihydro-5H-cyclopenta[b]pyridin-3-yl]pyrrolidine-2-carboxamide] showed a minimum inhibitory concentration (MIC) of 0.5 µg/mL (≈ 0.886 µM).

In the case of `N#Cc1cc(NC(=O)[C@@H]2C[C@@H](O)CN2)cc2c1CC(CNCCC1CN(c3cnc4c(n3)NC(=O)CO4)C(=O)O1)C2` (stereo partly drawn) [Example 61, (2S,4R)—N-[7-Cyano-2-[[2-[2-oxo-3-(3-oxo-4H-pyrazino[2,3-b][1,4]oxazin-6-yl)oxazolidin-5-yl]ethylamino]methyl]indan-5-yl]-4-hydroxy-pyrrolidine-2-carboxamide], the MIC is 0.5 µg/mL (≈ 0.889 µM).

In turn, `CN1CCC[C@@H]1C(=O)Nc1cc(C#N)c2c(c1)CC(CNCCC1CN(c3cnc4c(n3)NC(=O)CO4)C(=O)O1)C2` (stereo partly drawn) [Example 62, (2R)—N-[7-Cyano-2-[[2-[2-oxo-3-(3-oxo-4H-pyrazino[2,3-b][1,4]oxazin-6-yl)oxazolidin-5-yl]ethylamino]methyl]indan-5-yl]-1-methyl-pyrrolidine-2-carboxamide] came in with a minimal inhibitory concentration (MIC) of at most 0.06 µg/mL.

In the case of `CN(CCC1CN(c2cnc3c(n2)NC(=O)CO3)C(=O)O1)CC1Cc2cc(NC(=O)[C@@H]3C[C@@H](O)CN3)cc(F)c2C1` (stereo partly drawn) [Example 63, (2S,4R)—N-[7-Fluoro-2-[[methyl-[2-[2-oxo-3-(3-oxo-4H-pyrazino[2,3-b][1,4]oxazin-6-yl)oxazolidin-5-yl]ethyl]amino]methyl]indan-5-yl]-4-hydroxy-pyrrolidine-2-carboxamide], the minimal inhibitory concentration (MIC) amounted to 0.25 µg/mL (≈ 0.439 µM).

`CN1C[C@H](O)C[C@H]1C(=O)Nc1cc(F)c2c(c1)CC(CN1CCC3(CC1)CN(c1cnc4c(n1)NC(=O)CO4)C(=O)O3)C2` (stereo partly drawn) [Example 64, (2S,4R)—N-[7-Fluoro-2-[[2-oxo-3-(3-oxo-4H-pyrazino[2,3-b][1,4]oxazin-6-yl)-1-oxa-3,8-diazaspiro[4.5]decan-8-yl]methyl]indan-5-yl]-4-hydroxy-1-methyl-pyrrolidine-2-carboxamide] displayed a minimum inhibitory concentration (MIC) of 0.25 µg/mL (≈ 0.42 µM).

For the compound `C[C@H](C(=O)Nc1cc(F)c2c(c1)C(O)C(CN1CCC3(CC1)CN(c1cnc4c(n1)NC(=O)CO4)C(=O)O3)C2)N(C)C` (stereo partly drawn) [Example 65, (2R)-2-(Dimethylamino)-N-[7-fluoro-3-hydroxy-2-[[2-oxo-3-(3-oxo-4H-pyrazino[2,3-b][1,4]oxazin-6-yl)-1-oxa-3,8-diazaspiro[4.5]decan-8-yl]methyl]indan-5-yl]propanamide], the minimum inhibitory concentration (MIC) turned out to be 0.5 µg/mL (≈ 0.857 µM).

For `C[C@H](C(=O)Nc1cc(F)c2c(c1)C(O)C(CNCC[C@@H]1CN(c3cnc4c(n3)NC(=O)CO4)C(=O)O1)C2)N(C)C` (stereo partly drawn) [Example 66, (2R)-2-(Dimethylamino)-N-[7-fluoro-3-hydroxy-2-[[2-[(5R)-2-oxo-3-(3-oxo-4H-pyrazino[2,3-b][1,4]oxazin-6-yl)oxazolidin-5-yl]ethylamino]methyl]indan-5-yl]propanamide], the MIC amounted to 4 µg/mL (≈ 7.17 µM).

As for `C[C@H](C(=O)Nc1cc(F)c2c(c1)C(F)C(CNCC[C@@H]1CN(c3cnc4c(n3)NC(=O)CO4)C(=O)O1)C2)N(C)C` (stereo partly drawn) [Example 67, (2R)—N-[3,7-Difluoro-2-[[2-[(5R)-2-oxo-3-(3-oxo-4H-pyrazino[2,3-b][1,4]oxazin-6-yl)oxazolidin-5-yl]ethylamino]methyl]indan-5-yl]-2-(dimethylamino)propanamide], the MIC was 0.5 µg/mL (≈ 0.894 µM).

`C[C@H](C(=O)Nc1cc(F)c2c(c1)CC(CNCC[C@@H]1CN(c3cnc4c(n3)NC(=O)CO4)C(=O)O1)C2)N(C)C` (stereo partly drawn) [Example 70, (2R)-2-(Dimethylamino)-N-[7-fluoro-2-[[2-[(5R)-2-oxo-3-(3-oxo-4H-pyrazino[2,3-b][1,4]oxazin-6-yl)oxazolidin-5-yl]ethylamino]methyl]indan-5-yl]propanamide] displayed an MIC of 0.125 µg/mL (≈ 0.231 µM).
